# Values joined by “and” are separate entries in the source; they are usually repeats but may differ in a detail not shown here. Identical values can stand only once.
# Test system: AChE of S. zeamais
# Assay: AChE activity assay (modified Ellman) with S. zeamais protein extract
# Format: biochemical, Sitophilus zeamais
# Parameters: key to AChE Effect Inhibitor Type: C: competitive inhibitor; NC: non-competitive inhibitor
# Settings: not given
# Procedure: The compounds and mixtures evaluated in the in vitro assays were prepared in the same buffer supplemented with 0.5% (v/v) Triton X-100 (Sigma-Aldrich®, Saint Louis, MO, USA).
# The supernatant was filtered, and 20 mM benzamidine was added. The extracts were stored in 5 mL aliquots at −20 °C. Preliminary assays were performed to quantify the specific activity of AChE (0.02–1.00 U/mL), GST (0.1–0.8 U/mL), and CAT (0.1–25 U/mL), and to optimize assay conditions (enzyme dilution: 1/8 to 1% v/v; substrate concentrations: 2 × km or within assay linearity).
# Then, 50 µL of DTNB and 50 µL of ATChI were added. […] Inhibition percentages were calculated using Equation (5).
row,SMILES,"AChE inhibition type (Lineweaver–Burk plots), in words"
1,"C=C(C)[C@H]1CC=C(C)C(=O)C1 [Compound C3, S-(+)-Carvone]",competitive inhibition
2,"CC1=CC[C@H]2[C@@H](C1)C2(C)C [Compound C15, δ-3-Carene]",non-competitive inhibition
3,"C=CCc1ccc(OC)cc1 [Compound C11, Estragole]",competitive inhibition
4,"C=C(C)[C@@H]1CC[C@@H](C)C[C@H]1O [Compound C7, 1R,2S,5R-Isopulegol]",competitive inhibition
5,"C=C(C)C1CC=C(C)CC1 (racemic) [Compound C16, DL-Limonene (1:1)]",non-competitive inhibition

# Same assay, conditions: Lineweaver–Burk
row,SMILES,AChE Effect Inhibitor Type
1,"C=C(C)[C@H]1CC=C(C)C(=O)C1 [Compound C3, S-(+)-Carvone]",C
2,"CC1=CC[C@H]2[C@@H](C1)C2(C)C [Compound C15, δ-3-Carene]",NC
3,"C=CCc1ccc(OC)cc1 [Compound C11, Estragole]",C
4,"C=C(C)[C@@H]1CC[C@@H](C)C[C@H]1O [Compound C7, 1R,2S,5R-Isopulegol]",C
5,"C=C(C)C1CC=C(C)CC1 (racemic) [Compound C16, DL-Limonene (1:1)]",NC

# Same assay, conditions: S. zeamais protein extract
row,SMILES,AChE Effect IC50 ± SD [µg/mL]
1,"C=C(C)[C@H]1CC=C(C)C(=O)C1 [Compound C3, S-(+)-Carvone]",66.27 ± 4.35
2,"COP(=O)(OC)OC=C(Cl)Cl [Dichlorvos, reference compound]",0.0096 ± 0.00208
3,"C=CCc1ccc(OC)cc1 [Compound C11, Estragole]",27.41 ± 1.64
4,"C=C(C)[C@@H]1CC[C@@H](C)C[C@H]1O [Compound C7, 1R,2S,5R-Isopulegol]",18.15 ± 0.64
5,"C=C(C)C1CC=C(C)CC1 (racemic) [Compound C16, DL-Limonene (1:1)]",26.69 ± 2.90

# Same assay, conditions: S. zeamais protein extract; read-out: AChE Effect ki ± SD (inhibitory constant)
row,SMILES,Ki [µM]
1,"C=C(C)[C@H]1CC=C(C)C(=O)C1 [Compound C3, S-(+)-Carvone]",56.76 ± 0.18
2,"CC1=CC[C@H]2[C@@H](C1)C2(C)C [Compound C15, δ-3-Carene]",2.85 ± 0.05
3,"C=CCc1ccc(OC)cc1 [Compound C11, Estragole]",159 ± 6.34
4,"C=C(C)[C@@H]1CC[C@@H](C)C[C@H]1O [Compound C7, 1R,2S,5R-Isopulegol]",282 ± 4.14
5,"C=C(C)C1CC=C(C)CC1 (racemic) [Compound C16, DL-Limonene (1:1)]",79.64 ± 0.55

# Test system: glutathione S-transferase (GST) activity in S. zeamais
# Assay: GST activity assay (modified Habig) with S. zeamais protein extract
# Format: biochemical, Sitophilus zeamais
# Settings: 120 mg/L
# Procedure: Enzymatic assays were performed in the assay buffer, consisting of 0.1 M potassium phosphate buffer (pH 7.2). The compounds and mixtures evaluated in the in vitro assays were prepared in the same buffer supplemented with 0.5% (v/v) Triton X-100 (Sigma-Aldrich®, Saint Louis, MO, USA).
# A modified version of the method described by Oviedo et al. was used. Adults of S. zeamais (8 g; ~3125 insects) were frozen in liquid nitrogen, homogenized in a 1:10 ratio with assay buffer, and centrifuged at 13,000× g for 60 min at 4 °C. The supernatant was filtered, and 20 mM benzamidine was added. The extracts were stored in 5 mL aliquots at −20 °C. Preliminary assays were performed to quantify the specific activity of AChE (0.02–1.00 U/mL), GST (0.1–0.8 U/mL), and CAT (0.1–25 U/mL), and to optimize assay conditions (enzyme dilution: 1/8 to 1% v/v; substrate concentrations: 2 × km or within assay linearity). Each experiment was performed independently three times, with three technical replicates per experiment.
# A modified version of Habig’s method was used. The protein extract (50 µL; 0.59 U/mL) was incubated with 50 µL of the compound or mixture (120 mg/L), followed by 50 µL each of CDNB and reduced glutathione (GSH). Kinetic absorbance was measured at 340 nm for 8 min. Blanks (without substrate) and quercetin (positive control) were included. Inhibition (%) was calculated using Equation (5), and treatment differences were evaluated via parametric ANOVA (α = 0.05) in GraphPad Prism 8.0.2 [42, 43]. Each experiment was performed independently three times, with three technical replicates per experiment.(5) % Inhibition=1−Am−AB/AC ×100 where Am is the absorbance of the sample, AB is the absorbance of the blank, and AC is the absorbance of the negative control.
row,SMILES,GST Inhibition λ340 (%)
1,"C=C(C)[C@H]1CC=C(C)C(=O)C1 [Compound C3, S-(+)-Carvone]",23.0%
2,"C=C(C)[C@@H]1CC[C@@H](C)CC1=O [Compound C23, 2S,5R-Isopulegone]",19.4%
3,"CC1=CC[C@H]2[C@@H](C1)C2(C)C [Compound C15, δ-3-Carene]",7.3%
4,"C=C1CCC2(C(C)C)CC12 (centres unmarked) [Compound C18, Sabinene]",25.9%
5,"CC1=CCC(C(C)C)=CC1 [Compound C21, γ-Terpinene]",25.9%
6,"C=CCc1ccc(OC)cc1 [Compound C11, Estragole]",~ 17.5% and 17.6%
7,"C=C(C)[C@@H]1CC[C@@H](C)C[C@H]1O [Compound C7, 1R,2S,5R-Isopulegol]",10.6%
8,"C=C(C)C1CC=C(C)CC1 (racemic) [Compound C16, DL-Limonene (1:1)]",7.4%

# Test system: Sitophilus zeamais
# Assay: not given
# Format: in vivo
# Settings: in vivo
# Procedure: (§1) The insects used in this study were Sitophilus zeamais Motschulsky (Coleoptera: Curculionidae), identified by the Instituto Colombiano Agropecuario (ICA) under report number R3823M0000425. […] The adult insects used in all the experiments were 6 to 10 days post-emergence.
# Groups of 10 insects, previously placed in Petri dishes, were immobilized by exposure to low temperatures (0 °C). An initial dose of 50.0 µg per adult was applied topically to the dorsal thorax of each insect using aliquots of 0.20 µL from 0.25 mg/µL solutions in n-hexane. […] All treatments were performed in two independent experiments, each with four replicates. Insect mortality was assessed after 24 h, and mortality percentages were calculated using Abbott’s correction formula (Equation (1)).
# (§2) Mixtures predicted by the RSM were prepared based on mole fractions. […] Four replicates were performed for each treatment and control across two independent experimental runs.
# (§3) Dose reduction indices (DRIs) were also calculated to estimate how much the dose of each compound in a synergistic combination could be reduced to achieve a 50% effect (Equation (4)). DRIs were interpreted as favorable when >1, neutral at 1, and unfavorable when <1.
SMILES,"Contact toxicity, times less active than biosynthetic precursors C26 and C31 [times]",Contact Toxicity LD90 (95% FL)
"C=CCc1ccc2c(c1)OCO2 [Compound C32, Safrole]",1.5,
"C=CCc1ccc(OC)cc1 [Compound C11, Estragole]",,79.66 (68.62–99.73) µg/Adult

# Same assay, conditions: mixtures and their components (Table 3)
row,SMILES,Contact Toxicity LD50i (LC-95%)
1,"C=C(C)[C@H]1CC=C(C)C(=O)C1 [Compound C3, S-(+)-Carvone]",12.68 µg/Adult
2,"C=C(C)[C@@H]1CC[C@@H](C)CC1=O [Compound C23, 2S,5R-Isopulegone]",11.14 µg/Adult
3,"CC1(C)C(C=C(Cl)Cl)C1C(=O)OC(C#N)c1cccc(Oc2ccccc2)c1 (centres unmarked) [Cypermethrin, reference compound]",10.49 (0.10–19.96) µg/Adult

# Same assay, conditions: mixtures and their components (Table 3); listed as cypermethrin
row,SMILES,Contact Toxicity LD50i (LC-95%) [µg/Adult]
1,"CC1(C)C(C=C(Cl)Cl)C1C(=O)OC(C#N)c1cccc(Oc2ccccc2)c1 (centres unmarked) [Cypermethrin, reference compound]",10.49

# Same assay, conditions: topical, 24 h after exposure
SMILES,Contact Toxicity LD50 (95% FL),Contact Toxicity LD90 (95% FL)
"CC(C)=CCC/C(C)=C/CO [Compound C30, Geraniol]",28.13 (25.70–30.49) µg/Adult,41.06 (37.98–45.41) µg/Adult
"C=C(C)[C@H]1CC=C(C)C(=O)C1 [Compound C3, S-(+)-Carvone]",12.68 (10.91–14.60) µg/Adult,23.236 (20.46–27.42) µg/Adult
"C=C(C)[C@@H]1CC[C@@H](C)CC1=O [Compound C23, 2S,5R-Isopulegone]",,18.48 (16.56–21.64) µg/Adult
"C=CCc1ccc2c(c1)OCO2 [Compound C32, Safrole]",36.31 (30.15–42.37) µg/Adult,83.04 (73.50–96.63) µg/Adult
"C=C(C)[C@@H]1CC[C@@H](C)C[C@H]1O [Compound C7, 1R,2S,5R-Isopulegol]",,26.65 (25.07–28.90) µg/Adult
"CC1(C)C(C=C(Cl)Cl)C1C(=O)OC(C#N)c1cccc(Oc2ccccc2)c1 (centres unmarked) [Cypermethrin, reference compound]",10.492 (0.00–29.96) µg/Adult,35.79 (21.98–84.37) µg/Adult

# Test system: Sitophilus zeamais
# Assay: whole plant or invertebrate
# Settings: Sitophilus zeamais, 24 h, read-out: Fumigant Toxicity LC50i (LC-95%)
# Procedure: as §1
# The treated disks were affixed to the inner surface of the screw cap of 22 mL glass vials. […] All treatments were performed in two independent experiments, each with five replicates.
# as §2
# as §3, with “<1. Values above the log DRI = 0 line indicate favorable dose reductions.(4) (IRD)i=CL50i(fax)i/(1−(fax)i)^1/mi/(D)i” for “<1.”
row,SMILES,LC50 [µg/mL]
1,"C=C(C)[C@H]1CC=C(C)C(=O)C1 [Compound C3, S-(+)-Carvone]",2.87
2,"COP(=O)(OC)OC=C(Cl)Cl [Dichlorvos, reference compound]",2.17
3,"C=C(C)[C@@H]1CC[C@@H](C)CC1=O [Compound C23, 2S,5R-Isopulegone]",2.37
4,"CC1=CC[C@H]2[C@@H](C1)C2(C)C [Compound C15, δ-3-Carene]",80.3
5,"C=C1CCC2(C(C)C)CC12 (centres unmarked) [Compound C18, Sabinene]",68.7
6,"CC1=CCC(C(C)C)=CC1 [Compound C21, γ-Terpinene]",108
7,"C=CCc1ccc(OC)cc1 [Compound C11, Estragole]",30.5
8,"C=C(C)[C@@H]1CC[C@@H](C)C[C@H]1O [Compound C7, 1R,2S,5R-Isopulegol]",4.73
9,"C=C(C)C1CC=C(C)CC1 (racemic) [Compound C16, DL-Limonene (1:1)]",88.7

# Same assay, conditions: Sitophilus zeamais, in Homo sapiens, 24 h, read-out: Fumigant Toxicity LC50 (95% FL)
row,SMILES,LC50
1,"C=C(C)[C@H]1CC=C(C)C(=O)C1 [Compound C3, S-(+)-Carvone]",2.87 µg/mL and 19.1 µM
2,"COP(=O)(OC)OC=C(Cl)Cl [Dichlorvos, reference compound]",2.17 µg/mL and 9.84 µM
3,"C=C(C)[C@@H]1CC[C@@H](C)CC1=O [Compound C23, 2S,5R-Isopulegone]",2.37 µg/mL and 15.6 µM
4,"CC1=CC[C@H]2[C@@H](C1)C2(C)C [Compound C15, δ-3-Carene]",80.3 µg/mL and 590 µM
5,"C=C1CCC2(C(C)C)CC12 (centres unmarked) [Compound C18, Sabinene]",68.7 µg/mL and 504 µM
6,"CC1=CCC(C(C)C)=CC1 [Compound C21, γ-Terpinene]",108 µg/mL and 792 µM
7,"C=CCc1ccc(OC)cc1 [Compound C11, Estragole]",30.5 µg/mL and 206 µM
8,"C=C(C)[C@@H]1CC[C@@H](C)C[C@H]1O [Compound C7, 1R,2S,5R-Isopulegol]",4.73 µg/mL and 30.7 µM
9,"C=C(C)C1CC=C(C)CC1 (racemic) [Compound C16, DL-Limonene (1:1)]",88.7 µg/mL and 651 µM

# Same assay, conditions: Sitophilus zeamais, in Homo sapiens, 24 h, read-out: Fumigant Toxicity LC90 (95% FL)
row,SMILES,EC90
1,"C=C(C)[C@H]1CC=C(C)C(=O)C1 [Compound C3, S-(+)-Carvone]",5.31 µg/mL and 35.4 µM
2,"COP(=O)(OC)OC=C(Cl)Cl [Dichlorvos, reference compound]",4.57 µg/mL and 20.7 µM
3,"C=C(C)[C@@H]1CC[C@@H](C)CC1=O [Compound C23, 2S,5R-Isopulegone]",3.88 µg/mL and 25.5 µM
4,"CC1=CC[C@H]2[C@@H](C1)C2(C)C [Compound C15, δ-3-Carene]",136 µg/mL and 997 µM
5,"C=C1CCC2(C(C)C)CC12 (centres unmarked) [Compound C18, Sabinene]",102 µg/mL and 750 µM
6,"CC1=CCC(C(C)C)=CC1 [Compound C21, γ-Terpinene]",188 µg/mL and 1.38 mM
7,"C=CCc1ccc(OC)cc1 [Compound C11, Estragole]",57.5 µg/mL and 388 µM
8,"C=C(C)[C@@H]1CC[C@@H](C)C[C@H]1O [Compound C7, 1R,2S,5R-Isopulegol]",7.19 µg/mL and 46.6 µM
9,"C=C(C)C1CC=C(C)CC1 (racemic) [Compound C16, DL-Limonene (1:1)]",136 µg/mL and 999 µM

# Same assay, conditions: Sitophilus zeamais, read-out: LC50 values, fumigant activity (Figure 3)
row,SMILES,LC50 [µg/mL]
1,"C=C(C)[C@H]1CC=C(C)C(=O)C1 [Compound C3, S-(+)-Carvone]",2.87
2,"C=C1CCC2(C(C)C)CC12 (centres unmarked) [Compound C18, Sabinene]",68.6

# Same assay, conditions: mixtures and their components (Table 3)
row,SMILES,Fumigant Toxicity LC50i (LC-95%)
1,"COP(=O)(OC)OC=C(Cl)Cl [Dichlorvos, reference compound]",2.17 (1.53–3.81) mg/L

# Reference: paper PMC12194779, “Synergistic Insecticidal Activity of Plant Volatile Compounds: Impact on Neurotransmission and Detoxification Enzymes in Sitophilus zeamais” (Insects, 2025)
